pEC50: −log10 of the molar value. In brackets after ≈: the same amount, converted by molar mass.
Experiments:
Trichomonas vaginalis = assay: Anti-trichomonal activity against Trichomonas vaginalis assessed as inhibition of parasite growth incubated for 18 hrs; assay type: functional, organism-based
Mycoplasma genitalium = assay: Antibacterial activity against Mycoplasma genitalium G37C assessed as bacterial growth inhibition incubated for 7 days by phenol red reagent based microbroth dilution assay; assay type: functional; conditions: Mycoplasmoides genitalium, 168 h, time 7 day
[1] = Selectivity index, ratio of IC50 for cytotoxicity against african green monkey Vero cells incubated for 48 hrs by celltiter blue assay to MIC for antibacterial activity against Mycoplasma genitalium G37C assessed as bacterial growth inhibition incubated for 7 days by phenol red reagent based microbroth dilution assay; assay type: toxicity, cell-based; conditions: read-out: Selectivity Index

| Compound | pEC50 (Trichomonas vaginalis) | MIC90 (Mycoplasma genitalium) | selectivity ratio at 48 h [1] |
| --- | --- | --- | --- |
| C/C=C/C=C/[C@H]1C(C)=C[C@H]2C[C@@H](C)CC[C@@H]2[C@@]1(C)/C(O)=C1\C(=O)[C@H](COCc2cn(Cc3cc(C)cc(C)c3)nn2)N(C)C1=O | < 5.00 | 20.4 µM (≈ 12.5 µg/mL) |  |
| C#CCOC[C@@H]1C(=O)/C(=C(/O)[C@@]2(C)[C@@H](/C=C/C=C/C[C@@H](C)OCC#C)C(C)=C[C@H]3C[C@@H](C)CC[C@@H]32)C(=O)N1C | < 5.00 | 5.8 µM (≈ 3.1 µg/mL) | 14 |
| C/C=C/C=C/[C@H]1C(C)=C[C@H]2C[C@@H](C)CC[C@@H]2[C@@]1(C)/C(O)=C1/C(=O)N[C@@H](CO)C1=O | < 5.00 | 62.6 µM (≈ 25 µg/mL) |  |
| C/C=C/C=C/[C@H]1C(C)=C[C@H]2C[C@@H](C)CC[C@@H]2[C@@]1(C)/C(O)=C1\C(=O)[C@@H](COCc2cn(CC3CCCC3)nn2)N(C)C1=O | < 5.00 | 10.9 µM (≈ 6.29 µg/mL) |  |
| C/C=C/C=C/[C@H]1C(C)=C[C@H]2C[C@@H](C)CC[C@@H]2[C@@]1(C)/C(O)=C1\C(=O)[C@@H](COCc2cn(CC3CCCCO3)nn2)N(C)C1=O (stereo not given in full) | < 5.00 | 5.2 µM (≈ 3.08 µg/mL) | 8.1 |
| C/C=C/C=C/[C@H]1C(C)=C[C@H]2C[C@@H](C)CC[C@@H]2[C@@]1(C)/C(O)=C1\C(=O)[C@H](CO)N(C)C1=O | < 5.00 | 25 µM (≈ 10.3 µg/mL) |  |
| C/C=C/[C@@H]1C=C[C@@H]2C[C@H](C)CC[C@H]2[C@]1(C)/C(O)=C1\C(=O)[C@@H](CO)N(C)C1=O | < 5.00 | 2.1 µM (≈ 0.784 µg/mL) | 11.5 |
| C/C=C/C=C/[C@H]1C(C)=C[C@H]2C[C@@H](C)CC[C@@H]2[C@@]1(C)/C(O)=C1\C(=O)[C@H](COCc2cn(CC3CCCO3)nn2)N(C)C1=O (stereo not given in full) | < 5.00 | 12.5 µM (≈ 7.23 µg/mL) |  |
| C/C=C/C=C/[C@H]1C(C)=C[C@H]2C[C@@H](C)CC[C@@H]2[C@@]1(C)/C(O)=C1\C(=O)[C@@H](COCC=C(C)C)N(C)C1=O | < 5.00 | 6.4 µM (≈ 3.08 µg/mL) | 8.8 |
| C/C=C/C=C/[C@H]1C(C)=C[C@H]2C[C@@H](C)CC[C@@H]2[C@@]1(C)/C(O)=C1\C(=O)[C@H](COCc2cn(Cc3c[nH]c4ccccc34)nn2)N(C)C1=O | < 5.00 | 9.9 µM (≈ 6.18 µg/mL) | 2.5 |
| CC1=C[C@H]2C[C@@H](C)CC[C@@H]2[C@@](C)(/C(O)=C2\C(=O)[C@H](CO)N(C)C2=O)[C@H]1/C=C/C=C/C[C@@H](C)O | < 5.00 | 6.8 µM (≈ 3.11 µg/mL) |  |
| CC1=C[C@H]2C[C@@H](C)CC[C@@H]2[C@@](C)(/C(O)=C2\C(=O)[C@H](COCc3cn(CCO)nn3)N(C)C2=O)[C@H]1/C=C/C=C/C[C@@H](C)O | < 5.00 | > 40 µM |  |
| C/C=C/C=C/[C@H]1C(C)=C[C@H]2C[C@@H](C)CC[C@@H]2[C@@]1(C)/C(O)=C1\C(=O)[C@@H](COCc2cn(CC3CCCO3)nn2)N(C)C1=O (stereo not given in full) | 5.27 | 12.5 µM (≈ 7.23 µg/mL) |  |
| C/C=C/C=C/[C@H]1C(C)=C[C@H]2C[C@@H](C)CC[C@@H]2[C@@]1(C)/C(O)=C1\C(=O)[C@H](COCc2cn(CCO)nn2)N(C)C1=O | < 5.00 | 5.8 µM (≈ 3.12 µg/mL) | 9.7 |
| C/C=C/C=C/[C@H]1C(C)=C[C@H]2C[C@@H](C)CC[C@@H]2[C@@]1(C)/C(O)=C1\C(=O)[C@@H](COCc2cn(CCO)nn2)N(C)C1=O | < 5.00 | 23.2 µM (≈ 12.5 µg/mL) |  |
| C/C=C/C=C/[C@H]1C(C)=C[C@H]2C[C@@H](C)CC[C@@H]2[C@@]1(C)/C(O)=C1\C(=O)[C@H](COCc2cn(CC3CCCC3)nn2)N(C)C1=O | < 5.00 | 5.4 µM (≈ 3.11 µg/mL) | 7.9 |
| C/C=C/C=C/[C@H]1C(C)=C[C@H]2C[C@@H](C)CC[C@@H]2[C@@]1(C)C(=O)[C@H]1C(=O)N(C)[C@H](CO)[C@H]1O | < 5.00 | 7.5 µM (≈ 3.12 µg/mL) | 2.8 |
| CC1=C[C@H]2C[C@@H](C)CC[C@@H]2[C@@](C)(/C(O)=C2\C(=O)[C@@H](COCc3cn(CC4CCCCO4)nn3)N(C)C2=O)[C@H]1/C=C/C=C/C[C@@H](C)O (stereo not given in full) | < 5.00 | 19.6 µM (≈ 12.5 µg/mL) |  |
| C/C=C/C=C/[C@H]1C(C)=C[C@H]2C[C@@H](C)CC[C@@H]2[C@@]1(C)/C(O)=C1\C(=O)[C@H](COCc2cn(CCCCC)nn2)N(C)C1=O | < 5.00 | 22.1 µM (≈ 12.5 µg/mL) |  |
| C/C=C/C=C/[C@H]1C(C)=C[C@H]2C[C@@H](C)CC[C@@H]2[C@@]1(C)/C(O)=C1\C(=O)[C@H](COCc2cn(CCCCO)nn2)N(C)C1=O | < 5.00 | 22.1 µM (≈ 12.5 µg/mL) |  |

| Compound | pEC50 (Trichomonas vaginalis) | MIC90 (Mycoplasma genitalium) | selectivity ratio at 48 h [1] |
| --- | --- | --- | --- |
| CC1=C[C@H]2C[C@@H](C)CC[C@@H]2[C@@](C)(/C(O)=C2\C(=O)[C@@H](COCc3cn(CCc4ccc(O)cc4)nn3)N(C)C2=O)[C@H]1/C=C/C=C/C[C@@H](C)O | 5.27 | 38.8 µM (≈ 25.6 µg/mL) |  |
| C/C=C/C=C/[C@H]1C(C)=C[C@H]2C[C@@H](C)CC[C@@H]2[C@@]1(C)/C(O)=C1\C(=O)[C@@H](COCc2cn(Cc3cc(C)cc(C)c3)nn2)N(C)C1=O | < 5.00 | 20.4 µM (≈ 12.5 µg/mL) |  |
| C/C=C/C=C/[C@H]1C(C)=C[C@H]2C[C@@H](C)CC[C@@H]2[C@@]1(C)/C(O)=C1\C(=O)[C@H](COCc2cn(Cc3ccc(C(=O)O)cc3)nn2)N(C)C1=O | 5.12 | > 25 µM |  |
| CC1=C[C@H]2C[C@@H](C)CC[C@@H]2[C@@](C)(/C(O)=C2\C(=O)[C@@H](CO)N(C)C2=O)[C@H]1/C=C/[C@@H](O)[C@@H](C)O | < 5.00 | 12.5 µM (≈ 5.59 µg/mL) |  |
| C/C=C/C=C/[C@H]1C(C)=C[C@H]2C[C@@H](C)CC[C@@H]2[C@@]1(C)/C(O)=C1\C(=O)[C@@H](COCc2cn(Cc3c[nH]c4ccccc34)nn2)N(C)C1=O | < 5.00 | 4.9 µM (≈ 3.06 µg/mL) | 17.9 |
| C/C=C/C=C/[C@H]1C(C)=C[C@H]2C[C@@H](C)CC[C@@H]2[C@@]1(C)/C(O)=C1\C(=O)[C@@H](COCc2cn(CCCCC)nn2)N(C)C1=O | < 5.00 | 22.1 µM (≈ 12.5 µg/mL) |  |
| CC1=C[C@H]2C[C@@H](C)CC[C@@H]2[C@@](C)(/C(O)=C2\C(=O)[C@@H](CO)N(C)C2=O)[C@H]1/C=C/[C@H](O)[C@H](C)O | < 5.00 | > 50 µM |  |
| C/C=C/C=C/[C@H]1C(C)=C[C@H]2C[C@@H](C)CC[C@@H]2[C@@]1(C)/C(O)=C1\C(=O)[C@H](COCc2cn(CCCO)nn2)N(C)C1=O | < 5.00 | 22.6 µM (≈ 12.5 µg/mL) |  |
| C/C=C/C=C/[C@H]1C(C)=C[C@H]2C[C@@H](C)CC[C@@H]2[C@@]1(C)/C(O)=C1\C(=O)[C@@H](COCc2cn(CCc3ccc(O)cc3)nn2)N(C)C1=O | < 5.00 | 5 µM (≈ 3.07 µg/mL) | 6.1 |
| CC1=C[C@H]2C[C@@H](C)CC[C@@H]2[C@@](C)(/C(O)=C2\C(=O)[C@@H](COCc3cn(CCO)nn3)N(C)C2=O)[C@H]1/C=C/C=C/C[C@@H](C)O | < 5.00 | 10.8 µM (≈ 6.29 µg/mL) | 6.5 |
| CC1=C[C@H]2C[C@@H](C)CC[C@@H]2[C@@](C)(/C(O)=C2\C(=O)[C@H](COCc3cn(CCc4ccc(O)cc4)nn3)N(C)C2=O)[C@H]1/C=C/C=C/C[C@@H](C)O | < 5.00 | 9.8 µM (≈ 6.46 µg/mL) | 12.1 |
| C/C=C/C=C/[C@H]1C(C)=C[C@H]2C[C@@H](C)CC[C@@H]2[C@@]1(C)/C(O)=C1\C(=O)[C@@H](COCc2ccccc2)N(C)C1=O | < 5.00 | 24.8 µM (≈ 12.5 µg/mL) |  |
| CC1=C[C@H]2C[C@@H](C)CC[C@@H]2[C@@](C)(/C(O)=C2\C(=O)[C@@H](COCc3cn(Cc4ccc(C(=O)O)cc4)nn3)N(C)C2=O)[C@H]1/C=C/C=C/C[C@@H](C)O | < 5.00 | 37 µM (≈ 24.9 µg/mL) |  |
| C/C=C/C=C/[C@H]1C(C)=C[C@H]2C[C@@H](C)CC[C@@H]2[C@@]1(C)/C(O)=C1\C(=O)[C@@H](COCc2cn(CCCO)nn2)N(C)C1=O | < 5.00 | 22.6 µM (≈ 12.5 µg/mL) |  |
| CC1=C[C@H]2C[C@@H](C)CC[C@@H]2[C@@](C)(/C(O)=C2\C(=O)[C@H](COCc3cn(Cc4ccc(C(=O)O)cc4)nn3)N(C)C2=O)[C@H]1/C=C/C=C/C[C@@H](C)O | < 5.00 | > 37 µM |  |
| C/C=C/C=C/[C@H]1C(C)=C[C@H]2C[C@@H](C)CC[C@@H]2[C@@]1(C)/C(O)=C1\C(=O)[C@@H](COC(C)=O)N(C)C1=O | < 5.00 | 12.5 µM (≈ 5.69 µg/mL) |  |
| C#CCOC[C@@H]1C(=O)/C(=C(/O)[C@@]2(C)[C@@H](/C=C/C=C/C)C(C)=C[C@H]3C[C@@H](C)CC[C@@H]32)C(=O)N1C | < 5.00 | 14 µM (≈ 6.32 µg/mL) |  |
| C/C=C/C=C/[C@H]1C(C)=C[C@H]2C[C@@H](C)CC[C@@H]2[C@@]1(C)[C@@H](O)[C@H]1C(=O)N(C)[C@H](CO)[C@H]1O | < 5.00 | 30.1 µM (≈ 12.6 µg/mL) |  |
| C/C=C/C=C/[C@H]1C(C)=C[C@H]2C[C@@H](C)CC[C@@H]2[C@@]1(C)/C(O)=C1\C(=O)[C@@H](COCc2cn(CCCCO)nn2)N(C)C1=O | < 5.00 | 11.1 µM (≈ 6.29 µg/mL) |  |
